{
  "source": "patent EP1257544B1",
  "about": "“PIPERAZINE AND PIPERIDINE DERIVATIVES FOR TREATMENT OR PREVENTION OF NEURONAL DAMAGE” (VERTEX PHARMACEUTICALS INCORPORATED, priority 2000, dated 2001)",
  "note": "Structures can show the parent of a compound that is named as a salt.",
  "data": [
    {"test_system": "Dissociated VM cells", "assay": "Neuroprotection Assay (NMDA-induced neuroexcitotoxic injury, high affinity 3H-dopamine uptake)", "type": "cell-based, Sprague-Dawley rat", "settings": "embryonic day 15 rat ventral mesencephalic cultures, NMDA (100-400 µM) for 20 hours", "source_text": "The neuroprotective activity of the compounds of this invention may be assayed using rat embryo ventral mesencephalic cells in culture which are subsequently exposed to the glutamate receptor agonist NMDA. This assay is described in detail in the example section.\nThe ventral mesencephalic region was dissected out of embryonic day 15 Sprague-Dawley rat embryos (Harlan), dissociated into single cell suspension by a combination of trypsinization and trituration (Costantini et al., Neurobiol Dis., pp. 97-106 (1998). Dissociated VM cells were plated into poly-L-ornithine-coated 96-well plates at a density of 85,000 cells/well in 100 uL of DMEM supplemented with 18% heat-inactivated horse serum, 0.24% glucose, 2 mM glutamine and 50 u/ml pernicillin/streptomycin and incubated in a 5% CO2 incubator. After one day in culture (DIV1), the medium was replaced with 100 µL of a defined medium (DMEM supplemented with 1x N2 cocktail (Gibco-BRL), 0.12% glucose, 2 mM glutamine, and 50 units/ml penicillin/streptomycin) containing DMSO or various concentrations of the compounds of this invention. On DIV5, neuroexcitotoxic injury was induced by the addition of various concentrations of the glutamate receptor agonist NMDA (100-400 µM). Cultures were incubated with the neurotoxin for 20 hours and the effects of neurophilin compounds were assessed using high affinity ^3H-dopamine uptake according to a procedure published by Park and Mytilineou [Brain Res., 599, pp. 83-97 (1992)].", "units": {"EC50": "nM"}, "values": [
      {"smiles": "CCN1CCCC[C@H]1C(=O)N1CCC(C(c2ccccc2)c2ccccc2)CC1", "note": "[Compound 44, (4-Benzhydrylpiperidin-1-yl)-((2S)-1-ethylpiperidin-2-yl)-methanone hydrochloride]", "EC50": "< 100"},
      {"smiles": "CCN1CCCC[C@H]1C(=O)N1CCN(Cc2ccc3c(c2)OCO3)CC1", "note": "[Compound 71, (4-Benzo[1,3]dioxol-5-ylmethylpiperazin-1-yl)-((2S)-1-ethylpiperidin-2-yl)-methanone dihydrochloride]", "EC50": "> 500"},
      {"smiles": "CCN1CCCC[C@H]1C(=O)N1CCN(C(=O)c2ccc(F)cc2)CC1", "note": "[Compound 79, ((2S)-1-Ethylpiperidin-2-yl)-[4-(4-fluorobenzoyl)-piperazin-1-yl] methanone hydrochloride]", "EC50": "100 to 500"},
      {"smiles": "CCN1CCCC[C@H]1C(=O)N1CCC(C(=O)c2ccc(F)cc2)CC1", "note": "[Compound 45, ((2S)-1-Ethylpiperidin-2-yl)-[4-(4-fluorobenzoyl)-piperidin-1-yl]-methanone]", "EC50": "100 to 500"},
      {"smiles": "CCN1CCCC[C@@H]1C(=O)N1CCN(C(c2ccccc2)c2ccccc2)CC1", "note": "[Compound 15, 1-[4-(1,1-Diphenylmethyl)piperazin-1-yl]-1-((R)-1-ethylpiperidin-2-yl)methanone]", "EC50": "< 100"},
      {"smiles": "CN1CCC(C(=O)N2CCC(Cc3ccccc3)CC2)CC1", "note": "[Compound 202]", "EC50": "100 to 500"},
      {"smiles": "CCN1CCCC[C@H]1CN1CCC(Cc2ccccc2)CC1", "note": "[Compound 101, 4-Benzyl-1-((2S)-1-ethylpiperidin-2-ylmethyl)-piperidine]", "EC50": "< 100"},
      {"smiles": "CC(C)=CCN1CCCC[C@H]1C(=O)N1CCN(C(c2ccc(F)cc2)c2ccc(F)cc2)CC1", "note": "[Compound 65, {4-[Bis-(4-fluorophenyl)methyl]-piperazin-1-yl}-[(2S)-1-(3-methyl-but-2-enyl)-piperidin-2-yl]-methanone]", "EC50": "< 100"},
      {"smiles": "CCN1CCCC[C@H]1C(=O)N1CCN(C(=O)c2ccccc2)CC1", "note": "[Compound 78, [4-((2S)-1-Ethylpiperidine-2-carbonyl)-piperazin-1-yl]-phenyl methanone]", "EC50": "> 500"},
      {"smiles": "CCN1CCC[C@H]1C(=O)N1CCN(C(c2ccc(F)cc2)c2ccc(F)cc2)CC1", "note": "[Compound 50, 4-[Bis-(4-fluorophenyl)methyl]piperazin-1-yl}-((2S)-1-ethylpyrrolidin-2-yl)-methanone dihydrochloride]", "EC50": "100 to 500"},
      {"smiles": "CCN1CCC(C(=O)N2CCN(c3ccc(F)cc3)CC2)CC1", "note": "[Compound 226]", "EC50": "100 to 500"},
      {"smiles": "Fc1ccc(CC2CCN(C[C@@H]3CCCN3Cc3ccccc3)CC2)cc1", "note": "[Compound 103, 1-((2S)-1-Benzylpyrrolidin-2-ylmethyl)-4-(4-fluorobenzyl)piperidine dihydrochloride]", "EC50": "< 100"},
      {"smiles": "CN1CCCC(C(=O)N2CCC(Cc3ccc(F)cc3)CC2)C1", "note": "(stereo not drawn) [Compound 90, [4-(4-Fluorobenzyl)piperidin-1-yl]-(1-methylpiperidin-3-yl) methanone hydrochloride]", "EC50": "< 100"},
      {"smiles": "CCN1CCCC[C@H]1C(=O)N1CCC(C(O)c2ccc(F)cc2)CC1", "note": "(stereo partly drawn) [Compound 46, ((2S)-1-Ethylpiperidin-2-yl)-{4-[(4-fluorophenyl)hydroxymethyl]-piperidin-1-yl}-methanone]", "EC50": "> 500"},
      {"smiles": "O=C([C@@H]1CCCN1Cc1ccccc1)N1CCC(Cc2ccccc2)CC1", "note": "[Compound 52, (4-Benzylpiperidin-1-yl)-((2S)-1-benzylpyrrolidin-2-yl)-methanone hydrochloride]", "EC50": "< 100"},
      {"smiles": "O=C([C@@H]1CCCN1CCc1ccccc1)N1CCC(Cc2ccccc2)CC1", "note": "[Compound 57, (4-Benzylpiperidin-1-yl)-((2S)-1-phenethylpyrrolidin-2-yl)-methanone]", "EC50": "100 to 500"},
      {"smiles": "O=C([C@@H]1CCCN1Cc1ccccc1)N1CCN(c2ccc(F)cc2)CC1", "note": "[Compound 86, ((2S)-1-Benzylpyrrolidin-2-yl)-[4-(4-fluorophenyl)piperazin-1-yl] methanone hydrochloride]", "EC50": "< 100"},
      {"smiles": "CN1CCCC(C(=O)N2CCC(Cc3ccccc3)CC2)C1", "note": "(stereo not drawn) [Compound 204]", "EC50": "100 to 500"},
      {"smiles": "CC(C)=CCN1CCC(C(=O)N2CCC(Cc3ccc(F)cc3)CC2)CC1", "note": "[Compound 276]", "EC50": "< 100"},
      {"smiles": "CCN1CCCC[C@H]1C(=O)N1CCC(Cc2ccc(F)cc2)CC1", "note": "[Compound 47, ((2S)-1-Ethylpiperidin-2-yl)-[4-(4-fluorobenzyl)-piperidin-1-yl]-methanone hydrochloride]", "EC50": "< 100"},
      {"smiles": "O=C([C@H]1CCCN1Cc1ccccc1)N1CCC(Cc2ccccc2)CC1", "note": "[Compound 55, (4-Benzylpiperidin-1-yl)-((2R)-1-benzylpyrrolidin-2-yl)methanone hydrochloride]", "EC50": "100 to 500"},
      {"smiles": "CCN1CCCC[C@H]1C(=O)N1CCN(Cc2ccncc2)CC1", "note": "[Compound 37, ((2S)-1-Ethylpiperidin-2-yl)-(4-pyridin-4-ylmethylpiperazin-1-yl)-methanone trihydrochloride]", "EC50": "> 500"},
      {"smiles": "C=CCN1CCC(C(=O)N2CCN(c3ccc(F)cc3)CC2)CC1", "note": "[Compound 258]", "EC50": "100 to 500"},
      {"smiles": "O=C(C1CCN(C/C=C/c2ccccc2)CC1)N1CCC(Cc2ccc(F)cc2)CC1", "note": "[Compound 255]", "EC50": "< 100"},
      {"smiles": "CCN1CCCC[C@H]1C(=O)N1CCN(S(=O)(=O)c2ccc(F)cc2)CC1", "note": "[Compound 81, ((2S)-1-Ethylpiperidin-2-yl)-[4-(4-fluorobenzenesulfonyl)-piperazin-1-yl]-methanone hydrochloride]", "EC50": "> 500"},
      {"smiles": "O=C(C1CCN(Cc2ccc(F)cc2)CC1)N1CCC(Cc2ccc(F)cc2)CC1", "note": "[Compound 257]", "EC50": "100 to 500"},
      {"smiles": "O=C([C@@H]1CCCN1Cc1ccccc1)N1CCC(Oc2ccc(F)cc2)CC1", "note": "[Compound 48, ((2S)-1-Benzylpyrrolidin-2-yl)-[4-(4-fluorophenoxy)-piperidin-1-yl] -methanone hydrochloride]", "EC50": "< 100"},
      {"smiles": "COC(=O)CO[C@@H]1C[C@@H](C(=O)N2CCC(Cc3ccccc3)CC2)N(Cc2ccccc2)C1", "note": "[Compound 155, [(2S, 4R)-1-Benzyl-5-(4-benzylpiperidine-1-carbonyl)-pyrrolidin-3-yloxyl]-acetic acid methyl ester]", "EC50": "> 500"},
      {"smiles": "CN1CCC=C(C(=O)N2CCC(Cc3ccc(F)cc3)CC2)C1", "note": "[Compound 89, [4-(4-Fluorobenzyl)piperidin-1-yl]-(1-methyl-1,2,5,6-tetrahydropyridin-3-yl) methanone hydrochloride]", "EC50": "100 to 500"},
      {"smiles": "CCN1CCC[C@H]1C(=O)N1CCC(Cc2ccccc2)CC1", "note": "[Compound 53, (4-Benzylpiperidin-1-yl)-((2S)-1-ethylpyrrolidin-2-yl)-methanone hydrochloride]", "EC50": "100 to 500"},
      {"smiles": "CN1CCCC(C(=O)N2CCN(C(c3ccc(F)cc3)c3ccc(F)cc3)CC2)C1", "note": "(stereo not drawn) [Compound 220]", "EC50": "> 500"},
      {"smiles": "O=C(C1CCN(Cc2ccccc2)CC1)N1CCN(c2ccc(F)cc2)CC1", "note": "[Compound 256]", "EC50": "100 to 500"},
      {"smiles": "O=C([C@@H]1CCCCN1Cc1ccccc1)N1CCN(C(c2ccccc2)c2ccccc2)CC1", "note": "[Compound 20, 1-((S)-1-Benzyl-piperidin-2-yl)-1-[4-(1,1-diphenyl-methyl)-piperazin-1-yl]-methanone]", "EC50": "< 100"},
      {"smiles": "CCN1CCCC[C@H]1C(=O)N1CCN(Cc2ccc(F)c(F)c2)CC1", "note": "[Compound 77, [4-(3,4-Difluorobenzyl)-piperazin-1-yl]-((2S) -1-ethylpiperidin-2-yl)-methanone]", "EC50": "100 to 500"},
      {"smiles": "CCN1CCCC[C@H]1C(=O)N1CCC[C@H]1C(c1ccccc1)c1ccccc1", "note": "[Compound 27, 1-[(S)-2-(1,1-Diphenylmethyl)-pyrrolidin-1-yl]-1-((S)-1-ethyl-piperidin-2-yl)-methanone]", "EC50": "> 500"},
      {"smiles": "CCN1CCCC[C@H]1C(=O)N1CCN(Cc2ccc(Cl)c(Cl)c2)CC1", "note": "[Compound 69, [4-(3,4-Dichlorobenzyl)-piperazin-1-yl]-((2S)-1-ethylpiperidin-2-yl)-methanone dihydrochloride]", "EC50": "< 100"},
      {"smiles": "CCN1CCCC[C@H]1C(=O)N1CCN(C(c2ccccc2)c2ccccc2)CC1", "note": "[Compound 1, 1-[4-(1,1-Diphenylmethyl)piperazin-1-yl]-1-((S)-1-ethylpiperidin-2-yl)methanone]", "EC50": "< 100"},
      {"smiles": "O=C([C@@H]1CCCCN1Cc1ccc(F)cc1)N1CCN(C(c2ccc(F)cc2)c2ccc(F)cc2)CC1", "note": "[Compound 62, {4-[Bis-(4-fluorophenyl)methyl]-pipezazin-1-yl}-[(2S)-1-(4-fluorobenzyl)-piperidin-2-yl]-methanone]", "EC50": "100 to 500"},
      {"smiles": "CCN1CCCC[C@H]1C(=O)N1CCN(Cc2ccc(F)cc2)CC1", "note": "[Compound 76, ((2S)-1-Ethylpiperidin-2-yl)-[4-(4-fluorobenzyl)-piperazin-1-yl] methanone]", "EC50": "100 to 500"}
    ]}
  ]
}
